From patent US7858635B2 (priority 2005, dated 2010) come the findings set out here.

Molecules are shown by their SMILES. Like-named read-outs stand apart in the source and are kept apart here. Some results are limits rather than exact numbers.

In one assay the target is T1, M1 muscarinic receptor (Homo sapiens, UniProt P11229).
T1 construct: expressed in transfected cells; host or cells: CHO cells (M1-CHO, under zeocin and G418 selection)
T1 sequence (P11229 1-460): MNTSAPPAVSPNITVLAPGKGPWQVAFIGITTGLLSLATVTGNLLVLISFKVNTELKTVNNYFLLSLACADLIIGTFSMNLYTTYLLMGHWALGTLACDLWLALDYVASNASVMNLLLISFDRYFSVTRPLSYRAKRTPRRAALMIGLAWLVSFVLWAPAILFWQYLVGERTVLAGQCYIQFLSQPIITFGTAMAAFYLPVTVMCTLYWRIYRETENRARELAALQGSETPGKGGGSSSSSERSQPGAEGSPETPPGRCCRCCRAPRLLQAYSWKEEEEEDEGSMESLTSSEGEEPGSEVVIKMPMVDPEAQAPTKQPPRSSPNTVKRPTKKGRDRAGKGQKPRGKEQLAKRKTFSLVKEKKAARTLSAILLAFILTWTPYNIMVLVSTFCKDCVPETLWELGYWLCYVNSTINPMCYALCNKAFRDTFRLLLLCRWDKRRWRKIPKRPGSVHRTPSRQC
Nature of the assay: Functional mobilization of intracellular calcium (FLIPR, Fluo-3), M1-CHO cells. The format is cell-based. Conditions: for Emax: 100% efficacy is the maximum response obtained with the Carbachol control, read-out: M1 Efficacy. The procedure, abridged:
(§1)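 Fluo-3 read-out, ex 488/em 540 nm, 60 sec on FLIPR 3. For agonist mode, compound added directly; for inhibition, 15 min compound pre-incubation before carbachol at EC80 (added as a 3× solution), or co-application. Buffer pH 7.4 with 1 mM probenecid; DMSO 0.5%.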

The target of the next assay is T2, M4 muscarinic receptor (Homo sapiens, UniProt P08173).
T2 construct: expressed in transfected cells; host or cells: CHO cells (M4-CHO, under puromycin, zeocin and blasticidin selection)
T2 sequence (P08173 1-479): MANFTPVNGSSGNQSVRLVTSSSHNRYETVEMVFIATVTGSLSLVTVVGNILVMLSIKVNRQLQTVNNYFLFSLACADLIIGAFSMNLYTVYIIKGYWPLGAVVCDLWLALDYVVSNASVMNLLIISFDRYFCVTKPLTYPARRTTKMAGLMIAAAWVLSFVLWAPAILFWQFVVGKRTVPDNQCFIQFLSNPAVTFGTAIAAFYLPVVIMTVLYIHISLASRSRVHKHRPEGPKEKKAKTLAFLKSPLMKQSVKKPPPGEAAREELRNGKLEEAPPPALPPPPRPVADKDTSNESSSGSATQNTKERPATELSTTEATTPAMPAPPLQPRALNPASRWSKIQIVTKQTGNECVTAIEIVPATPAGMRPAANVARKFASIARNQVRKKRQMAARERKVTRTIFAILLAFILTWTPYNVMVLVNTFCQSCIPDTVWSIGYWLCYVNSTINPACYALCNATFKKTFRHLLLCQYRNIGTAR
Nature of the assay: Functional mobilization of intracellular calcium (FLIPR, Fluo-3), M4-CHO cells. In kind it is cell-based. Conditions: for Emax: 100% efficacy is the maximum response obtained with the Carbachol control, read-out: M4 Efficacy. In short, it runs like this:
as §1
For orientation: Calcium flux is commonly read through the fluorescence of an indicator in the cells.

Setting [1] is: compound nos. 1-454, M1-CHO cells, calcium mobilization.
Where [2] appears, read: compound nos. 1-454, M4-CHO cells, calcium mobilization.

Take `Cc1nsc(N2CCC(N3CCC4(CC3)CN(C(=O)N(C)C)c3ccccc34)CC2)n1` [compound 458]: the Emax at M1 muscarinic receptor (compound nos. 455-509) and at M4 muscarinic receptor (compound nos. 455-509) was more than 100% in each case. The “M1 Activity” value on M1 muscarinic receptor (compounds 455-509) is “+++ (activity was measured to be less than or equal to 2.0 μM)”. The “M4 Activity” value at M4 muscarinic receptor (compounds 455-509) is “++ (activity was measured to be between 2.0 μM and 5.0 μM)”.
For the molecule `CC(=O)N1CC2(CCN(C3CCN(C(=O)OC4CCC4)CC3)CC2)c2cc(C)ccc21` [compound 151], the Emax on M1 muscarinic receptor (compound nos. 1-454) was more than 85%; on M4 muscarinic receptor (compound nos. 1-454) it was more than 70%. The “M1 Activity” value on M1 muscarinic receptor (setting [1]) is reported as “+++ (activity was measured to be less than or equal to 0.7 μM)”. Also, the “M4 Activity” value on M4 muscarinic receptor (setting [2]) is given as “+++ (activity was measured to be less than or equal to 0.1 μM)”.
For the molecule `CC(=O)N1CC2(CCN(C3CCCCCC3)CC2)c2cc(F)ccc21` [compound 210], the Emax on M1 muscarinic receptor (compound nos. 1-454) is 65 to 85%; on M4 muscarinic receptor (compound nos. 1-454), less than 55%. In addition, the “M1 Activity” value on M1 muscarinic receptor (setting [1]) is “++ (activity was measured to be between 0.7 μM and 3.0 μM)”. For the same molecule, the “M4 Activity” value on M4 muscarinic receptor (setting [2]) was “+ (activity was measured to be greater than or equal to 4.0 μM)”.
For the molecule `COCCOC(=O)N1C2CCC1CC(N1CCC3(CC1)CN(C(=O)OC1CCC1)c1ccc(F)cc13)C2` (stereo not shown) [compound 106], the Emax at M1 muscarinic receptor (compound nos. 1-454) was 65 to 85%; on M4 muscarinic receptor (compound nos. 1-454) it was less than 55%. Besides, at M1 muscarinic receptor (setting [1]), the “M1 Activity” value was “+++ (activity was measured to be less than or equal to 0.7 μM)”. For the same molecule, the “M4 Activity” value at M4 muscarinic receptor (setting [2]) was “++ (activity was measured to be between 0.1 μM and 4.0 μM)”.
As for `Clc1ccc2c(c1)C1(CCN(C3CC4CCC(C4)C3)CC1)CN2` (stereo not shown) [compound 85], the Emax at M1 muscarinic receptor (compound nos. 1-454) lay in the range of 65 to 85%; at M4 muscarinic receptor (compound nos. 1-454), 55 to 70%. The “M1 Activity” value at M1 muscarinic receptor (setting [1]) is reported as “+++ (activity was measured to be less than or equal to 0.7 μM)”. Also, the “M4 Activity” value on M4 muscarinic receptor (setting [2]) was “++ (activity was measured to be between 0.1 μM and 4.0 μM)”.
`CN(C)C(=O)N1CC2(CCN(C3CCN(c4nncs4)CC3)CC2)c2ccccc21` [compound 495]: the Emax on M1 muscarinic receptor (compound nos. 455-509) and at M4 muscarinic receptor (compound nos. 455-509) was 25 to 100% throughout. The “M1 Activity” value on M1 muscarinic receptor (compounds 455-509) was “+ (activity was measured to be greater than or equal to 5.0 μM)”. Further, the “M4 Activity” value on M4 muscarinic receptor (compounds 455-509) is reported as “+ (activity was measured to be greater than or equal to 5.0 μM)”.
Regarding `C#CCCOC(=O)N1CCC(N2CCC3(CC2)CN(C(C)=O)c2ccc(F)cc23)CC1` [compound 62], the figures for the Emax at M1 muscarinic receptor (compound nos. 1-454) and at M4 muscarinic receptor (compound nos. 1-454) were less than 65% and 55 to 70%, respectively. In addition, the “M1 Activity” value at M1 muscarinic receptor (setting [1]) is recorded as “+++ (activity was measured to be less than or equal to 0.7 μM)”. For the same molecule, the “M4 Activity” value at M4 muscarinic receptor (setting [2]) is “++ (activity was measured to be between 0.1 μM and 4.0 μM)”.
Regarding `Clc1ccc2c(c1)C1(CCN(C3CCOCC3)CC1)CO2` [compound 257], the Emax is more than 85% at M1 muscarinic receptor (compound nos. 1-454) and less than 55% on M4 muscarinic receptor (compound nos. 1-454). Besides, the “M1 Activity” value on M1 muscarinic receptor (setting [1]) is “+ (activity was measured to be greater than or equal to 3.0 μM)”. The “M4 Activity” value on M4 muscarinic receptor (setting [2]) is given as “+ (activity was measured to be greater than or equal to 4.0 μM)”.
Take `Clc1ccc2c(c1)C1(CCO2)CCN(C2CCOCC2)CC1` [compound 178]: the Emax is more than 85% on M1 muscarinic receptor (compound nos. 1-454) and 55 to 70% on M4 muscarinic receptor (compound nos. 1-454). At M1 muscarinic receptor (setting [1]), the “M1 Activity” value is “++ (activity was measured to be between 0.7 μM and 3.0 μM)”. Further, the “M4 Activity” value on M4 muscarinic receptor (setting [2]) is “+ (activity was measured to be greater than or equal to 4.0 μM)”.
As to `CCOC(=O)N1C2CCC1CC(N1CCC3(CC1)C(=O)Nc1ccccc13)C2` (stereo not shown) [compound 199], the Emax at M1 muscarinic receptor (compound nos. 1-454) was 65 to 85%; on M4 muscarinic receptor (compound nos. 1-454), less than 55%. For the same molecule, the “M1 Activity” value on M1 muscarinic receptor (setting [1]) was “++ (activity was measured to be between 0.7 μM and 3.0 μM)”. Further, the “M4 Activity” value at M4 muscarinic receptor (setting [2]) was “+ (activity was measured to be greater than or equal to 4.0 μM)”.
Take `CCCCOC(=O)N1CC2(CCN(C3CCN(C(=O)OCC)CC3)CC2)c2cc(F)ccc21` [compound 220]: the Emax at M1 muscarinic receptor (compound nos. 1-454) is 65 to 85%; at M4 muscarinic receptor (compound nos. 1-454), less than 55%. The “M1 Activity” value on M1 muscarinic receptor (setting [1]) was “+ (activity was measured to be greater than or equal to 3.0 μM)”. Further, on M4 muscarinic receptor (setting [2]), the “M4 Activity” value is listed as “+ (activity was measured to be greater than or equal to 4.0 μM)”.
For `CCOC(=O)N(C)[C@H]1CC2(CCN(C[C@H]3C[C@H]4CC[C@H]3C4)CC2)c2ccccc21` [compound 347], the results for the Emax on M1 muscarinic receptor (compound nos. 1-454) and at M4 muscarinic receptor (compound nos. 1-454) were 65 to 85% and more than 70%, respectively. Besides, the “M1 Activity” value at M1 muscarinic receptor (setting [1]) is recorded as “+++ (activity was measured to be less than or equal to 0.7 μM)”. The “M4 Activity” value at M4 muscarinic receptor (setting [2]) was “++ (activity was measured to be between 0.1 μM and 4.0 μM)”.
In the case of `CC(C)OC(=O)N1C2CCC1CC(N1CCC3(CC1)CN(C(=O)O[C@@H]1CCOC1)c1ccc(F)cc13)C2` (stereo partly shown) [compound 361], the Emax at M1 muscarinic receptor (compound nos. 1-454) was less than 65%; at M4 muscarinic receptor (compound nos. 1-454), less than 55%. At M1 muscarinic receptor (setting [1]), the “M1 Activity” value was “++ (activity was measured to be between 0.7 μM and 3.0 μM)”. For the same molecule, the “M4 Activity” value at M4 muscarinic receptor (setting [2]) is recorded as “+ (activity was measured to be greater than or equal to 4.0 μM)”.
As for `CCOC(=O)N1CCC(CN2CCC3(CC2)CN(C(C)=O)c2c(F)cccc23)CC1` [compound 307], the Emax on M1 muscarinic receptor (compound nos. 1-454) was 65 to 85%; at M4 muscarinic receptor (compound nos. 1-454), less than 55%. Further, the “M1 Activity” value at M1 muscarinic receptor (setting [1]) was “++ (activity was measured to be between 0.7 μM and 3.0 μM)”. At M4 muscarinic receptor (setting [2]), the “M4 Activity” value was “+ (activity was measured to be greater than or equal to 4.0 μM)”.
Take `CC(=O)N[C@H]1CC2(CCN(CC3CCCCC3)CC2)c2ccccc21` [compound 184]: the figures for the Emax at M1 muscarinic receptor (compound nos. 1-454) and on M4 muscarinic receptor (compound nos. 1-454) were more than 85% and 55 to 70%, respectively. On M1 muscarinic receptor (setting [1]), the “M1 Activity” value is “++ (activity was measured to be between 0.7 μM and 3.0 μM)”. Also, the “M4 Activity” value on M4 muscarinic receptor (setting [2]) is “+ (activity was measured to be greater than or equal to 4.0 μM)”.
As for `CC(=O)N1CC2(CCN(C3CCCN(C(=O)OCCF)CC3)CC2)c2cc(F)ccc21` (stereo not shown) [compound 168], the “M1 Activity” value on M1 muscarinic receptor (setting [1]) was “++ (activity was measured to be between 0.7 μM and 3.0 μM)”. On M4 muscarinic receptor (compound nos. 1-454), the Emax was more than 70%. In addition, the “M4 Activity” value on M4 muscarinic receptor (setting [2]) was “++ (activity was measured to be between 0.1 μM and 4.0 μM)”.
As to `CCOC(=O)N1CCC(N2CCC3(CC2)CN(C(C)=O)c2ccc(F)cc23)C1` (stereo not shown) [compound 113], the Emax was 65 to 85% at M1 muscarinic receptor (compound nos. 1-454) and less than 55% at M4 muscarinic receptor (compound nos. 1-454). The “M1 Activity” value on M1 muscarinic receptor (setting [1]) was “+++ (activity was measured to be less than or equal to 0.7 μM)”. For the same molecule, the “M4 Activity” value at M4 muscarinic receptor (setting [2]) is “+ (activity was measured to be greater than or equal to 4.0 μM)”.
Take `CC(=O)N1CC2(CCN(C3CCCCC3)CC2)c2cc(F)ccc21` [compound 387]: at M1 muscarinic receptor (compound nos. 1-454), the “M1 Activity” value is recorded as “+++ (activity was measured to be less than or equal to 0.7 μM)” and the Emax lay within 65 to 85%. Also, on M4 muscarinic receptor (compound nos. 1-454), the “M4 Activity” value is “++ (activity was measured to be between 0.1 μM and 4.0 μM)”; the Emax was less than 55%.
Take `CCOC(=O)N1CCC(N2CCC3(CC2)CN(C(C)=O)c2ccc(C4=CCCC4)cc23)CC1` [compound 426]: on M1 muscarinic receptor (compound nos. 1-454), the “M1 Activity” value is listed as “+ (activity was measured to be greater than or equal to 3.0 μM)” and the Emax is less than 65%. In addition, at M4 muscarinic receptor (compound nos. 1-454), the “M4 Activity” value is given as “+ (activity was measured to be greater than or equal to 4.0 μM)” and the Emax was less than 55%.
`CC(=O)N1CC2(CCN(CC3CCOC3)CC2)c2cc(F)ccc21` (stereo not shown) [compound 135]: the results for the Emax at M1 muscarinic receptor (compound nos. 1-454) and on M4 muscarinic receptor (compound nos. 1-454) were more than 85% and more than 70%, respectively. In addition, at M1 muscarinic receptor (setting [1]), the “M1 Activity” value is listed as “+++ (activity was measured to be less than or equal to 0.7 μM)”. Also, the “M4 Activity” value on M4 muscarinic receptor (setting [2]) is “++ (activity was measured to be between 0.1 μM and 4.0 μM)”.
